A short description of data set [1]: Toxicity in zebra fish embryo assessed as survival rate at 100 ug/ml incubated for 48 hrs. Also on record: species or system Danio rerio. Particulars: zebrafish, zebrafish embryos, at 100 µg/mL.
Data set [2] deals with Enterococcus faecalis. Nature of the data set: Antibacterial activity against vancomycin-resistant Enterococcus faecalis ATCC 51299 assessed as inhibition of bacterial growth measured after 16 to 20 hrs by CLSI broth microdilution method. The class given is functional. Particulars: time 16-20 hrs. (Broth dilution looks for growth in wells or tubes with falling amounts of substance.)

For data set [3], the system named is Pseudomonas aeruginosa. Nature of the data set: Antibacterial activity against Pseudomonas aeruginosa ATCC 27853 assessed as inhibition of bacterial growth measured after 16 to 20 hrs by CLSI broth microdilution method. The class given is functional. Particulars: time 16-20 hrs.
Data set [4] relates to Enterococcus faecalis. The data set can be described thus: Antibacterial activity against Enterococcus faecalis ATCC 19433 assessed as inhibition of bacterial growth measured after 16 to 20 hrs by CLSI broth microdilution method. The class given is functional. Conditions: time 16-20 hrs.
In data set [5] the test system is Staphylococcus aureus. Nature of the data set: Antibacterial activity against methicillin-resistant Staphylococcus aureus ATCC 1556 assessed as inhibition of bacterial growth measured after 16 to 20 hrs by CLSI broth microdilution method. The class given is functional. Particulars: time 16-20 hrs.
The nature of data set [6]: Toxicity in zebra fish embryo assessed as mortality at 33 ug/ml incubated for 48 hrs. Also on record: species or system Danio rerio. Conditions: zebrafish, dose 33 µg/ml.
A short description of data set [7]: Toxicity in zebra fish embryo assessed as mortality at 100 ug/ml incubated for 48 hrs. The arrangement: species or system Danio rerio. Particulars: zebrafish, dose 100 µg/ml.

In brackets after ≈: the same amount, converted by molar mass.

Turning to `CC[C@@](C)(NC(=O)[C@H](CC(C)C)NC(=O)CNC(=O)C(C)(C)NC(=O)C(C)(C)NC(=O)C(C)(C)NC(=O)C(C)(C)NC(=O)[C@@H](NC(C)=O)C(C)C)C(=O)NC(C)(C)C(=O)N1C[C@H](O)C[C@H]1C(=O)N[C@@H](CCC(N)=O)C(=O)N[C@](C)(CC)C(=O)N1C[C@H](O)C[C@H]1C(=O)NC(C)(C)C(=O)N[C@H](CO)Cc1ccccc1`, in data set [1], the survival at 48 h, 100 ug/ml came out at 70%. Moreover, the minimal inhibitory concentration (MIC) in data set [2], in data set [3], in data set [4] and in data set [5] was more than 100 µg/mL throughout.
Turning to `CC[C@@](C)(NC(=O)[C@H](CC(C)C)NC(=O)CNC(=O)[C@@](C)(CC)NC(=O)C(C)(C)NC(=O)C(C)(C)NC(=O)C(C)(C)NC(=O)[C@@H](NC(C)=O)C(C)C)C(=O)NC(C)(C)C(=O)N1C[C@H](O)C[C@H]1C(=O)N[C@@H](CCC(N)=O)C(=O)N[C@](C)(CC)C(=O)N1C[C@H](O)C[C@H]1C(=O)NC(C)(C)C(=O)N[C@H](CO)Cc1ccccc1`, the survival at 48 h, 100 ug/ml in data set [1] worked out at 75%. For the same molecule, the MIC in data set [2], in data set [3], in data set [4] and in data set [5] was more than 100 µg/mL throughout.
On to `CC[C@@](C)(NC(=O)[C@H](CC(C)C)NC(=O)CNC(=O)[C@@](C)(CC)NC(=O)C(C)(C)NC(=O)C(C)(C)NC(=O)C(C)(C)NC(=O)[C@H](Cc1ccccc1)NC(C)=O)C(=O)NC(C)(C)C(=O)N1C[C@H](O)C[C@H]1C(=O)N[C@@H](CCC(N)=O)C(=O)N[C@](C)(CC)C(=O)N1C[C@H](O)C[C@H]1C(=O)NC(C)(C)C(=O)N[C@H](CO)Cc1ccccc1`, for which the minimal inhibitory concentration (MIC) in data set [2] was 64 µg/mL (≈ 40.3 µM); in data set [3], more than 100 µg/mL; in data set [4], 64 µg/mL (≈ 40.3 µM); in data set [5], 32 µg/mL (≈ 20.2 µM). In addition, the Activity result in data set [6] is on record as “Toxic”.
As for GENTAMICIN, the MIC in data set [2] is 4 µg/mL; in data set [3] it was 2 µg/mL; in data set [4], 8 µg/mL; in data set [5], 4 µg/mL.
In the case of `CC(=O)O[C@H]1C[C@@]2(C)[C@@H](CC[C@H]3[C@@]4(C)C=CC(=O)[C@@H](C)[C@@H]4[C@H](OC(C)=O)C(=O)[C@@]32C)/C1=C(\CCC=C(C)C)C(=O)O` [HELVOLIC ACID], the minimum inhibitory concentration (MIC) in data set [2] is 8 µg/mL (≈ 14.1 µM); in data set [3], more than 100 µg/mL; in data set [4], 16 µg/mL (≈ 28.1 µM); in data set [5], 4 µg/mL (≈ 7.03 µM).
Regarding `CC[C@@](C)(NC(=O)[C@H](CC(C)C)NC(=O)CNC(=O)[C@@](C)(CC)NC(=O)C(C)(C)NC(=O)C(C)(C)NC(=O)C(C)(C)NC(=O)[C@H](CC(C)C)NC(C)=O)C(=O)NC(C)(C)C(=O)N1C[C@H](O)C[C@H]1C(=O)N[C@@H](CCC(N)=O)C(=O)N[C@](C)(CC)C(=O)N1C[C@H](O)C[C@H]1C(=O)NC(C)(C)C(=O)N[C@H](CO)Cc1ccccc1`, the MIC in data set [2], in data set [3], in data set [4] and in data set [5] was more than 100 µg/mL in each case. The Activity entry in data set [7] is “Toxic”.
In the case of `CC[C@@](C)(NC(=O)[C@H](CC(C)C)NC(=O)CNC(=O)C(C)(C)NC(=O)C(C)(C)NC(=O)C(C)(C)NC(=O)C(C)(C)NC(=O)[C@H](CC(C)C)NC(C)=O)C(=O)NC(C)(C)C(=O)N1C[C@H](O)C[C@H]1C(=O)N[C@@H](CCC(N)=O)C(=O)N[C@](C)(CC)C(=O)N1C[C@H](O)C[C@H]1C(=O)NC(C)(C)C(=O)N[C@H](CO)Cc1ccccc1`, the MIC in data set [2], in data set [3], in data set [4] and in data set [5] was more than 100 µg/mL throughout. The Activity entry in data set [7] is “Toxic”.
Turning to `CC[C@@](C)(NC(=O)[C@H](CC(C)C)NC(=O)CNC(=O)C(C)(C)NC(=O)C(C)(C)NC(=O)C(C)(C)NC(=O)C(C)(C)NC(=O)[C@H](Cc1ccccc1)NC(C)=O)C(=O)NC(C)(C)C(=O)N1C[C@H](O)C[C@H]1C(=O)N[C@@H](CCC(N)=O)C(=O)N[C@](C)(CC)C(=O)N1C[C@H](O)C[C@H]1C(=O)NC(C)(C)C(=O)N[C@H](CO)Cc1ccccc1`, the MIC in data set [2] was more than 100 µg/mL; in data set [3], more than 100 µg/mL; in data set [4], more than 100 µg/mL; in data set [5], 64 µg/mL (≈ 40.7 µM). Also, the Activity entry in data set [6] is recorded as “Toxic”.

The term MIC denotes the lowest concentration that inhibits growth of the organism.
